In patent US8507498B2, “4, 6-disubstituted aminopyrimidine derivatives as inhibitors of protein kinases” (Ingenium Pharmaceuticals GmbH, priority 2007, dated 2013):
“Also recorded” adds a separate entry of the source.

Key:
[1] = tested on: HCT116; assay: Growth assay using Alamar Blue; type: cell-based; conditions: Homo sapiens, HCT-116, read-out: IC50 against cell line HCT116
Experimental: (§1) Cells were seeded in 384-well plates (white, Greiner: 781080) at a density of […] cells per well in medium (RPMI+10% FCS).
(§2) Cells were incubated in 25 μl medium/well and were grown over night at 37° C., 6% CO2. On the following day compounds were added in DMSO in serial fold dilutions in fresh medium. Negative control wells were incubated without cells. Positive control wells were incubated with cells but without inhibitors (DMSO only). These wells served as data points to determine relative growth (given in % of the DMSO control [=100%]). The cell number was determined by addition of 5 μL Alamar Blue™ (Biosource DAL1100) to each well. Fluorescence was measures with an Analyst GT machine (Molecular Devices) at an excitation wavelength of 560 nm and an emission wavelength of 590 nm.
(§3) The following cell lines were used: A2780 (ECACC order number 93112519; human ovarian carcinoma; Semin Oncol (1984) 11:285; Cancer Res (1987) 47:414), B16F1 (ATCC order number CRL-6323; melanoma; Nat. New Biol. 242: 148-149, 1973); HCT116 (ATCC order number CCL-247; Colorectal carcinoma; Cancer Res (1981) 41:1751; Cancer (1995) 76:201), HT29 (ATTC order number HTB-38; colorectal adenocarcinoma; J. Biol. Chem. 271: 9490-9496, 1996) HepG2 (ATCC order number HB-8065; hepatocellular carcinoma; J. Biol. Chem. 271: 10073-10078, 1996), J774 (ATCC order number TIB-67; reticulum cell sarcoma; J. Biol. Chem. 271: 18431-18436, 1996); MCF7 (ATCC order number HTB-22; Breast carcinoma; J Natl Cancer Inst (1973) 51:1409; Cancer Res (1993) 53:5193), PM1 (obtainable from the National Institute of Allergy and Infectious Diseases; Division of AIDS via the NIH AIDS Research & Reference Reagent Program; Lusso P et al (1995), J Virol 69: 3712-3720) and U373-MAGI-CCR5 (obtainable from the National Institute of Allergy and Infectious Diseases; Division of AIDS via the NIH AIDS Research & Reference Reagent Program; Kensinger R D et al (2004), Antimicrob Agents Chemother 48: 1614-1623).
(§4) IC50s were calculated for each cell line based on serial dilutions.

[2] = tested on: U373-MAGI-CCR5E; assay: Growth assay using Alamar Blue; type: cell-based; conditions: read-out: IC50 against cell line U373-MAGI-CCR5E
Experimental: as §1, §2, §3, §4

[3] = target: CDK1/CycB (Homo sapiens, UniProt P06493); assay: General kinase assay (Example 80); type: biochemical; conditions: ATP 1 μM
Chain of CDK1/CycB (P06493 whole entry, species assumed): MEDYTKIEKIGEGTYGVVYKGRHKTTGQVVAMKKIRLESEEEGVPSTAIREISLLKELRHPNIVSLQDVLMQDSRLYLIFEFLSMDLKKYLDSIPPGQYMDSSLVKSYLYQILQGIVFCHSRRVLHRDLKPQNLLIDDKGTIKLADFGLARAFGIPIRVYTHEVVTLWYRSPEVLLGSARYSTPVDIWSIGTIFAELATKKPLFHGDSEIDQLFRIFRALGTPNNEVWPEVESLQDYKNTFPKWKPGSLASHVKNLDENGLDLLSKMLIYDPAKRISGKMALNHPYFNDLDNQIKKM
Chain of CDK1/CycB (P14635 whole entry partner, species assumed): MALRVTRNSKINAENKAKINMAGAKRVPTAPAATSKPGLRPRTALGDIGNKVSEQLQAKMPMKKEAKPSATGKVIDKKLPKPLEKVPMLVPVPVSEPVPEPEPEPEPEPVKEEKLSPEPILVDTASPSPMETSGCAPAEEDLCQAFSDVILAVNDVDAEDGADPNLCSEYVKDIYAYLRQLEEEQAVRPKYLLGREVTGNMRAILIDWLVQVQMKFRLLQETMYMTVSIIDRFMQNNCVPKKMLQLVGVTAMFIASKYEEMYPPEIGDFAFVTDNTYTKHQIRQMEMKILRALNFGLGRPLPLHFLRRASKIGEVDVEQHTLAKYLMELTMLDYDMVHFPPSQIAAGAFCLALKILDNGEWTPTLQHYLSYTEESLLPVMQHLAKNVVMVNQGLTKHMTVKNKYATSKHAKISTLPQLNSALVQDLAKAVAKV
Experimental: (§5) The inhibitory effect of compounds according to the present invention on the activity of protein kinases can be measured according to the following protocol: • Reaction Volume: 40 μl • Reaction Time: 60 min • Reaction Temperature: room temperature • Assay Plate: 96 well U bottom plate (Greiner, 650161) • MultiScreen-PH Plate: 96 well MAPH Filter Plates (Millipore, MAPHNOB50) • Filter Washing Solution: 0.75% H3PO4 • Scintillation Liquid Supermix Liquid Scintillator (PerkinElmer, 1200-439) Controls: • Negative Control (C−): 100 mM EDTA (Ethylenediaminetetraacetic acid), no Inhibitor • Positive Control (C+): no Inhibitor Reaction Buffer: • 20 mM Tris (Tris(hydroxymethyl)aminomethane hydrochloride), pH 7.5 • 10 mM MgCl2 • 1 mM DTT Final Assay Concentrations: • Kinase: Use kinase conc. yielding 10% ATP turn over. • ATP: 1 μM • Adenosine 5′-[-^33P]triphosphate:12.5 μCi/ml (Amersham Biosciences, BF1000) • Substrate: Myelin Basic Protein 10 μM (Invitrogen, 13228-010) Pipetting Sequence: • 1) Add 10 μl 4 fold concentrated Substrate+4 fold concentrated ATP in […] concentrated Reaction Buffer to each well of Assay Plate • 2) Add 10 μl 4 fold concentrated inhibitor in 4% DMSO in H2O to each well except to C− and C+wells • 3) Add 10 μl 4% DMSO in H2O to C− and C+wells • 4) Add 10 μl 500 mM EDTA in H2O to C− wells • 5) Add 10 μl 50 μCi/ml Adenosine 5′-[-^33P]triphosphate in H2O to each well • 6) Add 10 μl 4 fold concentrated kinase in Reaction Buffer to each well • 7) Incubate 1 hr at room temperature • 8) Add 10 μl 50 mM EDTA in H2O to each well except to C− wells • 9) Prepare MAPH plates by adding 200 μl 0.75% H3PO4 to each well • 10) Exhaust 0.75% H3PO4 using Millipore vacuum station • 11) Add 60 μl 0.75% H3PO4 to each well of MAPH Filter Plate • 12) Transfer 30 μl sample per well from Assay Plate to corresponding well of MAPH Filter Plate • 13) Incubate 30 min at room temperature • 14) Wash each well of MAPH Filter Plates 3× with 200 μl 0.75% H3PO4 using Millipore vacuum station. • 15) Add 20 μl Scintillation Liquid to each well of MAPH Filter Plate • 16) Seal MAPH Filter Plate • 17) Store MAPH Filter Plate 30 min in darkness • 18) Quantify radioactivity Results:
(§6) IC50s were calculated for each kinase based on serial dilutions.

[4] = target: T1, CDK5/p35 (Homo sapiens, UniProt Q00535); assay: General kinase assay (Example 80); type: biochemical; conditions: ATP 1 μM
T1 construct: purchased Upstate
T1 sequence (Q00535 whole entry): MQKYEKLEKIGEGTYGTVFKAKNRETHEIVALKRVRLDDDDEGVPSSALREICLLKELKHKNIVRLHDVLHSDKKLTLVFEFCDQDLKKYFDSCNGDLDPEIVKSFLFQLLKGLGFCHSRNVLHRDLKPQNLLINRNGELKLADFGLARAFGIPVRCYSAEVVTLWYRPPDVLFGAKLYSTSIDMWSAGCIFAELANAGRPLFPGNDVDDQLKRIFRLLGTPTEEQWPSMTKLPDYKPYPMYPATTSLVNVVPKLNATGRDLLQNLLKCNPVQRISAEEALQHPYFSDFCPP
T1 sequence (Q15078 whole entry partner): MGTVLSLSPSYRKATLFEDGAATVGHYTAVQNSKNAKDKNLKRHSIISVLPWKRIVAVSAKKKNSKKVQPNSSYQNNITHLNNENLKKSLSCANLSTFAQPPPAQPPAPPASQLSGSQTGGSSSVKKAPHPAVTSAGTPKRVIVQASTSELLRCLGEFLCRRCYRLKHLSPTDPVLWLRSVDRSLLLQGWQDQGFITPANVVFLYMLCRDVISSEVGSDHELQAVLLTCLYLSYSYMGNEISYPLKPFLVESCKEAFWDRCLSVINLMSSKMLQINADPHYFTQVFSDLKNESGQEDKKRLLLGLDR
Experimental: (§7) Kinase assays determining CDK2/CyclinA and CDK5/p35 activity were performed as described by the manufacturer's recommendations (ProQinase (Freiburg, Germany) for CDK2/CyclinA and Upstate for CDK5/p35).
as §5, §6

[5] = target: T2, CDK2/CycA (Homo sapiens, UniProt P24941); assay: General kinase assay (Example 80); type: biochemical; conditions: ATP 1 μM
T2 construct: purchased ProQinase (Freiburg, Germany)
Experimental: as §7, §5, §6

[6] = target: T3, CDK9/CycT1 (Homo sapiens, UniProt P50750); assay: General kinase assay (Example 80); type: biochemical; conditions: ATP 1 μM
T3 construct: made in house; host or cells: HEK293 cells (ATCC CRL-1573), recombinant adenovirus
T3 sequence (P50750 whole entry, species assumed): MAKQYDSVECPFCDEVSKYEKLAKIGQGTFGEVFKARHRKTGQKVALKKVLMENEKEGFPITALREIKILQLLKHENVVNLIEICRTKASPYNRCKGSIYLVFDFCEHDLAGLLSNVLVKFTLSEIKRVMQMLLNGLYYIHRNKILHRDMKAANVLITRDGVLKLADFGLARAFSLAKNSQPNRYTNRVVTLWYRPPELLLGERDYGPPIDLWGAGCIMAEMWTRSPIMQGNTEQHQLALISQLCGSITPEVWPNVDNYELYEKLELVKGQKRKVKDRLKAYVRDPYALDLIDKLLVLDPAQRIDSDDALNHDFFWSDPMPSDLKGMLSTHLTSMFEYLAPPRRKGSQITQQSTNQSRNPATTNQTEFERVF
T3 sequence (O60563 whole entry partner, species assumed): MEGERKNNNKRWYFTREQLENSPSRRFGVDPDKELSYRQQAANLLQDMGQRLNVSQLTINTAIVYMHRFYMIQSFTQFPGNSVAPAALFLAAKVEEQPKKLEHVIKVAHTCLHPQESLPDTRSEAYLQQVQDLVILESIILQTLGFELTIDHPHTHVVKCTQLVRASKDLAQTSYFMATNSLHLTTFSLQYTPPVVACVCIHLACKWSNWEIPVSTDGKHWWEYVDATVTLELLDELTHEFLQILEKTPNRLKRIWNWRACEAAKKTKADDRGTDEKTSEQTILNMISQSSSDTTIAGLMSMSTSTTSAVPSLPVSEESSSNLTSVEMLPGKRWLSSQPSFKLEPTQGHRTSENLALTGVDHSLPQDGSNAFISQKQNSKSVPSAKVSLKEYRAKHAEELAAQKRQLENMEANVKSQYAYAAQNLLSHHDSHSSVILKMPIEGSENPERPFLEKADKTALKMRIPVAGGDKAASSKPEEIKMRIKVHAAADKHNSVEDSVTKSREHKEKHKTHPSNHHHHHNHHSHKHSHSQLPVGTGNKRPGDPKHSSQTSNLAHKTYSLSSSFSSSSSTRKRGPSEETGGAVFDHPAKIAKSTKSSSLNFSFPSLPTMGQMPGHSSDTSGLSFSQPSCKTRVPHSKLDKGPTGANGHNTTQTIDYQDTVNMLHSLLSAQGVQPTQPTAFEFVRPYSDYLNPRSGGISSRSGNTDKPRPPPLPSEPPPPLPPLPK
Excerpt: Both cDNA fragments were cloned by PCR into pDONR201 vectors using the gateway recombination system (Invitrogen) according to the manufacturer's recommendations. The fragments were subcloned into a gateway-adapted shuttle vector (pPM7) for production of recombinant adenovirus. All plasmids were verified by restriction digests and sequencing analysis.
Expression and purification of CDK9/Cyclin T1 proteins was in principle performed as described by Cotten et al. (M. Cotten et al., Nucleic acids research, 2003, 31(28), 128).
Kinase assays using CDK9/Cyclin T1 were performed in principle as described by Cotten et al. (M. Cotten et al., Nucleic acids research, 2003, 31(28), 128).
as §6

[7] = tested on: SNI mice (mechanical allodynia); assay: Spared nerve injury (SNI) model, von Frey assay; type: in vivo; conditions: 30 mg/kg per os 30 min prior to measurement, day 107 post SNI, vs vehicle
Experimental: Wildtype mice (strain C3HeB/FeJ) (age, sex and weight matched) were anesthetized with Hypnorm (0.315 mg/ml fentanyl citrate+10 mg/ml fluanisone; Janssen)/Hypnovel (5 mg/ml midazolam; Roche Applied Sciences)/water at a ratio of 1:1:2 at 4 μl/g prior to surgical preparation.
Subsequently, an incision was made under aseptic precautions in the ipsi-lateral right hind leg of all mice just above the level of the knee, exposing the three terminal branches of the sciatic nerve: the common peroneal, tibial, and sural nerves. The common peroneal and tibial nerves were ligated tightly with 7/0 silk and sectioned distal to the ligation removing ≈2 mm of distal nerve stump. The sural branch remained untouched during the procedure (denoted herein “SNI ipsi”). The overlying muscle and skin was sutured, and the animals were allowed to recover and to permit wound healing. […]
Injection of inhibitor or vehicle, and subsequent measurements of paw withdrawal threshold to mechanical stimulation in von Frey assays were performed at day 107 post SNI. Reflex nociceptive responses to mechanical stimulation were measured in a von Frey assay 30 min after each injection. […]
Mechanical thresholds of SNI mice were quantified using the up-down method based on Chaplan et al. (1994) and Malmberg and Basbaum (1998). […]

[8] = tested on: HepG2; assay: Growth assay using Alamar Blue; type: cell-based; conditions: Homo sapiens, read-out: IC50 against cell line HepG2
Experimental: as §1, §2, §3, §4

[9] = tested on: PM1; assay: Growth assay using Alamar Blue; type: cell-based; conditions: read-out: IC50 against cell line PM1
Experimental: as §1, §2, §3, §4

[10] = target: CDK4/CycD1 (Homo sapiens, UniProt P11802); assay: General kinase assay (Example 80); type: biochemical; conditions: ATP 1 μM
Chain of CDK4/CycD1 (P11802 whole entry, species assumed): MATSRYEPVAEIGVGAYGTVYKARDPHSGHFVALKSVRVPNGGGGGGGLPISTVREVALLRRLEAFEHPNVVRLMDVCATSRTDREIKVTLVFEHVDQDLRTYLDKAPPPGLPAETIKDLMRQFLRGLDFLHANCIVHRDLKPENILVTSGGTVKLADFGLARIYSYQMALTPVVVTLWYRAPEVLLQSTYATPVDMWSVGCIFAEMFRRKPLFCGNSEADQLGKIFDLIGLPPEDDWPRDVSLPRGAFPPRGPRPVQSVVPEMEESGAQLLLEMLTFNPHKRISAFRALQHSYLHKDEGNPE
Chain of CDK4/CycD1 (P24385 whole entry partner, species assumed): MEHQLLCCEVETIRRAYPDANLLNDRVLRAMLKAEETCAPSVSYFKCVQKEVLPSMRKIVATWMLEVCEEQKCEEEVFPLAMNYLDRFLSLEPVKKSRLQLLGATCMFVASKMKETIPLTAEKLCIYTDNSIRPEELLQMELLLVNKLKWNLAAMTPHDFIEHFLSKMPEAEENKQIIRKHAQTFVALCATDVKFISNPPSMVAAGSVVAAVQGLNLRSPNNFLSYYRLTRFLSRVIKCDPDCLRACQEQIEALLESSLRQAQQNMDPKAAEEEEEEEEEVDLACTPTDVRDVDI
Experimental: as §5, §6

[11] = target: CDK6/CycD3 (Homo sapiens, UniProt Q00534); assay: General kinase assay (Example 80); type: biochemical; conditions: ATP 1 μM
Chain of CDK6/CycD3 (Q00534 whole entry, species assumed): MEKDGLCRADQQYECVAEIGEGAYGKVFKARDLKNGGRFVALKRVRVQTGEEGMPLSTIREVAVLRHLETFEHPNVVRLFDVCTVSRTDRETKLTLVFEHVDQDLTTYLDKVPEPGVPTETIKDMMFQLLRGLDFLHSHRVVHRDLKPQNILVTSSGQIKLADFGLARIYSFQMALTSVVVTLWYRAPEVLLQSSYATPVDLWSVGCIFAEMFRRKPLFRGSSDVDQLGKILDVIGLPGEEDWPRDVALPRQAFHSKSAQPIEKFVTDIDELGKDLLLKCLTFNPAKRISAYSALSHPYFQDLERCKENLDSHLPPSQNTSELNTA
Chain of CDK6/CycD3 (P30281 whole entry partner, species assumed): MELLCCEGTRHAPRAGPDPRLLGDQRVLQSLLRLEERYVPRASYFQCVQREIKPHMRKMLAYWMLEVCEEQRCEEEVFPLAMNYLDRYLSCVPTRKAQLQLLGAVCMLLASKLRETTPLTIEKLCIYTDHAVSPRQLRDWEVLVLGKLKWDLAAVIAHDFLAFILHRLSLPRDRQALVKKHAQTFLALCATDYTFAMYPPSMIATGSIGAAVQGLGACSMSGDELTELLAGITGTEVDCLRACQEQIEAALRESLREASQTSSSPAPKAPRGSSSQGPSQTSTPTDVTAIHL
Experimental: as §5, §6

| IC50 [1] [µM] | IC50 [3] [µM] | IC50 [4] [µM] | IC50 [5] [µM] | IC50 [6] [µM] | IC50 [8] [µM] | IC50 [10] [µM] | IC50 [11] [µM] | Structure (SMILES) | IC50 [2] [µM] | melting point [°C] | paw withdrawal threshold to mechanical stimulation (von Frey), mechanical allodynia [7] | IC50 [9] [µM] |
| --- | --- | --- | --- | --- | --- | --- | --- | --- | --- | --- | --- | --- |
|  |  |  |  |  |  |  |  | CCOc1ccccc1-c1cc(Nc2cccc(CS(=O)(=O)NC)c2)ncn1 [Compound 43, C-{3-[6-(2-Ethoxy-phenyl)-pyrimidin-4-ylamino]-phenyl}-N-methyl-methanesulfonamide] |  |  | hypoalgesic effect; also recorded: significant increase of threshold values |  |
| < 2 | < 5 | < 5 | < 2 | < 0.1 | > 10 | < 10 | < 10 | CNS(=O)(=O)Cc1cccc(Nc2cc(-c3ccccc3OC)ncn2)c1 [Compound 49, C-{3-[6-(2-methoxy-phenyl)-pyrimidin-4-ylamino]-phenyl}-N-methyl-methanesulfonamide] |  |  |  | < 5 |
| < 5 | < 10 | < 10 | < 10 | < 0.5 |  | > 10 |  | COCCNS(=O)(=O)Cc1cccc(Nc2cc(-c3ccccc3OC)ncn2)c1 [Compound 86, N-(2-methoxy-ethyl)-C-{3-[6-(2-methoxy-phenyl)-pyrimidin-4-ylamino]-phenyl}-methanesulfonamide] |  |  |  |  |

| Structure (SMILES) | IC50 [1] [µM] | IC50 [3] [µM] | IC50 [4] [µM] | IC50 [5] [µM] | IC50 [6] [µM] | IC50 [8] [µM] | IC50 [10] [µM] | IC50 [11] [µM] | IC50 [2] [µM] | melting point [°C] | paw withdrawal threshold to mechanical stimulation (von Frey), mechanical allodynia [7] | IC50 [9] [µM] |
| --- | --- | --- | --- | --- | --- | --- | --- | --- | --- | --- | --- | --- |
| COc1ccccc1-c1cc(Nc2cccc(CS(=O)(=O)N(C)C)c2)ncn1 [Compound 20, C-{3-[6-(2-methoxy-phenyl)-pyrimidin-4-ylamino]-phenyl}-N,N-dimethyl-methanesulfonamide] | < 5 | < 5 | < 5 | < 2 | < 0.5 |  |  |  | < 10 | 187.5 to 188.8 |  |  |
